Data taken from US7446127B2, “Chroman carboxylic acid derivatives for the treatment of diabetes and lipid disorders” (SK Holdings Co, Ltd., priority 2003, dated 2008).

Columns and labels:
HF rat = assay: Insulin tolerance test (ITT) in HF rat; format: in vivo, Sprague-Dawley rats; settings: 30 mg/kg oral, insulin 0.25 U/kg i.p. 2 hr later
Experimental: An Oral Glucose Tolerance Test (OGTT) was performed both in db/db mice and in high fat (HF) rats after dosing 30 mg/kg/d of compounds of Examples 1 and 2 for 9 days. For OGTT and ITT studies, Sprague-Dawley rats were prepared by feeding high fat (HF) diet (60% calorie from fat) for 6 weeks. Before the study, they were matched into groups on the basis of blood glucose levels. Insulin tolerance test (ITT) was performed in HF rat which were prepared in the same manner with OGTT test animal. On the day of the study, rats were orally dosed with the testing compounds (30 mg/kg) and 2 hr later, rats were dosed with insulin (0.25 U/kg, i.p.) in 0.1% BSA solution in saline. Blood glucose of the rat was measured at 15, 30, 60, 120 min after dose.

db/db mice [1] = assay: Efficacy test for blood glucose lowering (db/db mice); format: in vivo; settings: 30 mg/kg/d oral
Experimental: (§1) Mice used in this study were standard model of type II diabetes developed by Jackson Laboratories (Bar Harbor, Me.). Male, 8-week-old db/db mice were housed six per cage in hanging wire bottom cages with standard laboratory conditions. The mice had free access to normal chow (Purina Rodent Chow) and water. At the age of 11-12 weeks, mice were bled in the tail for glucose matching among the groups (n=6 per group). The grouped mice were then dosed orally with vehicle (CMC) or with compounds of formula I (30 mg/kg/d) for 7 days. Compound of formula I at 30 mg/kg/d was dosed as suspension in 0.5% CMC+0.2% Tween 80 in H2O. Fresh suspension was prepared for 8 days dosing and kept in a refrigerator. The suspension was administered by oral gavage daily in the morning. The control group received vehicle (dose 10 mL/kg). Blood glucose concentrations were monitored at basal and 3 hr post dose on day 4 and 8. For blood sampling, mice were placed in a restrainer and drop of blood was obtained by nick in the tip of the tail. Blood glucose concentrations were determined either by putting a drop of blood on a glucose strip for analysis by a glucometer or using a 10 μL plasma sample in a YSI (Yellow Spring Instruments, OH) analyzer. Results are expressed as absolute blood glucose concentrations (mg/dL) and % reduction that is achieved reduction relative to vehicle treated control group. Animals having more than 300 mg/dL of blood glucose were used for testing. Statistical significance (p<0.05) is given versus the appropriate sample in vehicle treated animals. On day 7, the mice were fasted overnight for 18 hrs and were bled in the tail for the glucose level checking then dosed with the testing compounds (30 mg/kg/d). After 2 hr, blood samples were taken and the rats were dosed with 10% glucose in water (10 ml/kg) orally and blood glucose was monitored at 15, 30, 60, 90 and 120 min after dosing. The blood samples were centrifuged and plasma samples were collected and analyzed for insulin, Tg and FFA.

high fat (HF) rats = assay: Oral Glucose Tolerance Test (OGTT) in high fat (HF) rats; format: in vivo, Sprague-Dawley rats; settings: 30 mg/kg/d for 9 days
Experimental: An Oral Glucose Tolerance Test (OGTT) was performed both in db/db mice and in high fat (HF) rats after dosing 30 mg/kg/d of compounds of Examples 1 and 2 for 9 days. For OGTT and ITT studies, Sprague-Dawley rats were prepared by feeding high fat (HF) diet (60% calorie from fat) for 6 weeks. Before the study, they were matched into groups on the basis of blood glucose levels.

db/db mice [2] = assay: Oral Glucose Tolerance Test (OGTT) in db/db mice; format: in vivo; settings: 30 mg/kg/d for 9 days
Experimental: as §1, with “FFA. An Oral Glucose Tolerance Test (OGTT) was performed both in db/db mice and in high fat (HF) rats after dosing 30 mg/kg/d of compounds of Examples 1 and 2 for 9 days. For OGTT and ITT studies, Sprague-Dawley rats were prepared by feeding high fat (HF) diet (60% calorie from fat) for 6 weeks. Before the study, they were matched into groups on the basis of blood glucose levels.” for “FFA.”

[3] = system: differentiated 3T3-L1 adipocytes; assay: Glucose transport assay (2-deoxy-D-glucose uptake); format: cell-based
[4] = system: differentiated 3T3-L1 adipocytes; assay: Glucose transport assay (2-deoxy-D-glucose uptake); format: cell-based; settings: 48 hr
Experimental: 3T3-L1 fibroblasts (American Type Culture Collection) were plated and grown for 2 days postconfluence in Dulbecco's modified Eagle's medium (DMEM; 4,500 mg/L glucose, HyClone) supplemented 10% FBS, 10 μg/mL penicillin and streptomycin in an atmosphere of 5% CO2 at 37° C. Adipocyte differentiation was then induced using standard protocol. After 48 hr, the differentiation medium was replaced with maintenance medium containing DMEM supplemented with 10% FBS. The maintenance medium was changed every 3 days until the cells were utilized for experimentation. Glucose transport activity was measured in the presence or absence of insulin and the protocol was modified from Kletzien, R F et al. (1992) Molecular Pharmacology 41:393-398. Briefly, differentiated 3T3-L1 adipocytes were incubated with vehicle (DMSO), insulin (100 nM) alone, test compound (50 μM) alone and a combination of insulin (100 nM)+test compound (50 μM) for 48 hr. Medium was changed twice a day in the presence of compound. Glucose uptake was measured using 2-Deoxy-D-[1−^3H] glucose as label after 90 min incubation with each compound. […] In the series of compounds, one of the best result was obtained with 7-[2-(5-methyl-2-phenyl-4-oxazolyl)-ethoxy]-chroman-3-carboxylic acid (Example 1).

[5] = Solubility in dosing vehicle; format: physicochemical
From the text: It appeared that compounds of Examples 1 and 2 were not soluble in 0.5% CMC vehicle.

STZ rat = assay: Blood glucose lowering effect in STZ rat; format: in vivo; settings: STZ rat (data not shown)

Cc1oc(-c2ccccc2)nc1CCOc1ccc2c(c1)OCC(C(=O)O)C2 (centres unmarked) [Example 1, 7-[2-(5-Methyl-2-phenyl-4-oxazolyl)ethoxy]chromane-3-carboxylic acid]
AUC of Glucose in high fat rat, % reduction (HF rat): 27.7 (p < 0.02) % | AUC of Glucose in high fat rat, Observed value (HF rat; control 13359): 11014 mg/dl × 120 min | Fatty acid % reduction (db/db mice [1]; plasma): −33.7% | Insulin % reduction (db/db mice [1]; plasma): −62.4% | Glucose Max % efficacy (db/db mice [1]; suspension in 0.5% CMC + 0.2% Tween 80): 80.0% | Glucose Observed value (db/db mice [1]; suspension in 0.5% CMC + 0.2% Tween 80, control 261.2): 132.2 mg/dL | AUC of Glucose in high fat rat, % reduction (high fat (HF) rats): 13.1% | AUC of Glucose in high fat rat, Observed value (high fat (HF) rats; control 14053): 12206 mg/dl × 120 min | AUC of Glucose in db/db, % reduction (db/db mice [2]): 41.5% | AUC of Glucose in db/db, Observed value (db/db mice [2]; control 40858): 28870 mg/dl × 120 min | glucose uptake, dose dependence on compound ([3]; 0-100 μM compound in the presence of 100 nM insulin (FIG. 2)): dose-dependent manner | glucose uptake of insulin in presence of compound ([3]; 50 μM compound, 0.1-1,000 nM insulin (FIG. 3)): further enhanced glucose uptake of insulin in dose dependent manner | stimulation of basal glucose uptake by compound per se ([3]; 3T3-L1 adipocytes, no insulin, 0.1 to 100 μM): did not stimulate the basal glucose uptake | Fold Stimulation (50 μM) of 2-deoxy-D-glucose uptake, Insulin + Compound ([4]; 50 μM compound + 100 nM insulin): 8.4 fold | fold induction at 50 µM ([4]; Mus musculus, 50 μM compound alone, read-out: Fold Stimulation (50 μM) of 2-deoxy-D-glucose uptake, Compound only): 1.3 | solubility in 0.5% CMC vehicle [5]: not soluble | blood glucose lowering effect (STZ rat): did not reduce blood glucose
